Patent US10501752B2, “Herbicide tolerant cotton event pDAB4468.19.10.3” (Dow AgroSciences LLC, priority 2012, dated 2019)

Columns and labels:
Type in all cases: in vivo, Gossypium hirsutum
[1] = test system: cotton event pDAB4468.19.10.3; test: Tolerance to triclopyr and fluroxypyr in greenhouse trials (percent visual injury); settings: cotton event, 3 leaf stage, greenhouse
Procedure: (§1) The tolerance of cotton event pDAB4468.19.10.3 to post-emergence applications of the pyridyloxyacetic acid herbicides, triclopyr and fluroxypyr, was studied in greenhouse trials. Herbicide tolerance was assessed following a single post-emergence application of triclopyr or fluroxypyr. Seed from cotton event pDAB4468.19.10.3 were heat treated in a water bath at 82.5° C. for 1 minute and then planted in metro mix 360 media and grown in a greenhouse. The temperatures in the greenhouse averaged 27° C. and the photoperiod was set at 16 hours of light and eight hours of dark, with maximum light intensity. Plants were allowed to grow until the 3 leaf stage of development and a non-randomized study was conducted with three replications and three treatments for each herbicide. Plants were sprayed in a track sprayer calibrated to deliver 187 L/ha of the commercial formulations of triclopyr (Garlon 4TM, Dow AgroSciences, Indianapolis, Ind.) and fluroxypyr ([…], Dow AgroSciences, Indianapolis, Ind.). A non-transformed Coker 310 variety of cotton was used as a negative control.

[2] = test system: non-transformed Coker 310 variety of cotton; test: Triclopyr and fluroxypyr greenhouse trials, negative control plants (percent visual injury); settings: 3 leaf stage
Procedure: as §1

[3] = test system: cotton event pDAB4468.19.10.3 (aad-12); test: Tolerance to butanoic acids of triclopyr and fluroxypyr in greenhouse trials (% injury); settings: 2-3 leaf stage
Procedure: (§2) Herbicide tolerance was assessed following a single post-emergence application of the two molecules. Seed from cotton event pDAB4468.19.10.3 were heat treated in a water bath at 82.5° C. for 1 minute and then planted in metro mix 360 media and grown in a greenhouse. The temperatures in the greenhouse averaged 27° C. and the photoperiod was set at 16 hours of light and eight hours of dark, with maximum light intensity. Plants were allowed to grow until the 2-3 leaf stage of development and a non-randomized study was conducted with four replications and three treatments for each herbicide. […] In addition, a crop oil concentrate was added to a final concentration of 1.25%. Plants were sprayed in a track sprayer calibrated to deliver 187 L/ha of the formulated technical material. A non-transformed Coker 310 variety of cotton was used as a negative control.

[4] = test system: non-transformed Coker 310 variety of cotton (WT); test: Butanoic acids of triclopyr and fluroxypyr greenhouse trials, negative control plants (% injury); settings: 2-3 leaf stage
Procedure: as §2

O=C(O)COc1nc(Cl)c(Cl)cc1Cl [Triclopyr, triclopyr]
% Injury ([1]; 140 g ae/ha, 3 DAA): 13.0 c %
% Injury ([1]; 140 g ae/ha, 11 DAA): 3.5 b %
% Injury ([1]; 280 g ae/ha, 3 DAA): 16.5 b %
% Injury ([1]; 280 g ae/ha, 11 DAA): 3.3 b %
% Injury ([1]; 560 g ae/ha, 3 DAA): 19.5 a %
% Injury ([1]; 560 g ae/ha, 11 DAA): 3.3 b %
% Injury ([2]; 140 g ae/ha, 3 DAA): 33.8 a %
% Injury ([2]; 140 g ae/ha, 11 DAA): 36.3 b %
% Injury ([2]; 280 g ae/ha, 3 DAA): 33.8 a %
% Injury ([2]; 280 g ae/ha, 11 DAA): 40.0 ab %
% Injury ([2]; 560 g ae/ha, 3 DAA): 36.3 a %
% Injury ([2]; 560 g ae/ha, 11 DAA): 48.8 a %
% Injury ([3]; 140 g ai/ha, 1 DAA): 8.8a %
% Injury ([3]; 140 g ai/ha, 3 DAA): 2a %
% Injury ([3]; 140 g ai/ha, 6 DAA): 2.8a %
% Injury ([3]; 140 g ai/ha, 6 HAA): 19.5a %
% Injury ([3]; 140 g ai/ha, 14 DAA): 0a %
% Injury ([3]; 280 g ai/ha, 1 DAA): 8a %
% Injury ([3]; 280 g ai/ha, 3 DAA): 1.8a %
% Injury ([3]; 280 g ai/ha, 6 DAA): 0.5a %
% Injury ([3]; 280 g ai/ha, 6 HAA): 15.8a %
% Injury ([3]; 280 g ai/ha, 14 DAA): 0a %
% Injury ([3]; 560 g ai/ha, 1 DAA): 9.5a %
% Injury ([3]; 560 g ai/ha, 3 DAA): 3.5a %
% Injury ([3]; 560 g ai/ha, 6 DAA): 3.5a %
% Injury ([3]; 560 g ai/ha, 6 HAA): 17.3a %
% Injury ([3]; 560 g ai/ha, 14 DAA): 0a %
% Injury ([4]; 140 g ai/ha, 1 DAA): 24.3a %
% Injury ([4]; 140 g ai/ha, 3 DAA): 30a %
% Injury ([4]; 140 g ai/ha, 6 DAA): 33.8a %
% Injury ([4]; 140 g ai/ha, 6 HAA): 20.8a %
% Injury ([4]; 140 g ai/ha, 14 DAA): 56.3ab %
% Injury ([4]; 280 g ai/ha, 1 DAA): 23a %
% Injury ([4]; 280 g ai/ha, 3 DAA): 32.5a %
% Injury ([4]; 280 g ai/ha, 6 DAA): 33.8a %
% Injury ([4]; 280 g ai/ha, 6 HAA): 20.3a %
% Injury ([4]; 280 g ai/ha, 14 DAA): 60ab %
% Injury ([4]; 560 g ai/ha, 1 DAA): 24.5a %
% Injury ([4]; 560 g ai/ha, 3 DAA): 32.5a %
% Injury ([4]; 560 g ai/ha, 6 DAA): 35a %
% Injury ([4]; 560 g ai/ha, 6 HAA): 21.8a %
% Injury ([4]; 560 g ai/ha, 14 DAA): 67.5a %

O=C(O)CCCOc1nc(Cl)c(Cl)cc1Cl [Triclopyr-b, triclopyr-B]
% Injury ([3]; 140 g ai/ha, 1 DAA): 0.5b %
% Injury ([3]; 140 g ai/ha, 3 DAA): 1a %
% Injury ([3]; 140 g ai/ha, 6 DAA): 1.5a %
% Injury ([3]; 140 g ai/ha, 6 HAA): 3.8c %
% Injury ([3]; 140 g ai/ha, 14 DAA): 0a %
% Injury ([3]; 280 g ai/ha, 1 DAA): 2b %
% Injury ([3]; 280 g ai/ha, 3 DAA): 2a %
% Injury ([3]; 280 g ai/ha, 6 DAA): 2.8a %
% Injury ([3]; 280 g ai/ha, 6 HAA): 5.3c %
% Injury ([3]; 280 g ai/ha, 14 DAA): 0a %
% Injury ([3]; 560 g ai/ha, 1 DAA): 2.8b %
% Injury ([3]; 560 g ai/ha, 3 DAA): 3.5a %
% Injury ([3]; 560 g ai/ha, 6 DAA): 4.3a %
% Injury ([3]; 560 g ai/ha, 6 HAA): 8.5b %
% Injury ([3]; 560 g ai/ha, 14 DAA): 0a %
% Injury ([4]; 140 g ai/ha, 1 DAA): 20.5a %
% Injury ([4]; 140 g ai/ha, 3 DAA): 26.7a %
% Injury ([4]; 140 g ai/ha, 6 DAA): 25b %
% Injury ([4]; 140 g ai/ha, 6 HAA): 12.8b %
% Injury ([4]; 140 g ai/ha, 14 DAA): 47.5b %
% Injury ([4]; 280 g ai/ha, 1 DAA): 21.5a %
% Injury ([4]; 280 g ai/ha, 3 DAA): 27.5a %
% Injury ([4]; 280 g ai/ha, 6 DAA): 33.8a %
% Injury ([4]; 280 g ai/ha, 6 HAA): 7.3b %
% Injury ([4]; 280 g ai/ha, 14 DAA): 57.5ab %
% Injury ([4]; 560 g ai/ha, 1 DAA): 18.8a %
% Injury ([4]; 560 g ai/ha, 3 DAA): 33.8a %
% Injury ([4]; 560 g ai/ha, 6 DAA): 35a %
% Injury ([4]; 560 g ai/ha, 6 HAA): 8.3b %
% Injury ([4]; 560 g ai/ha, 14 DAA): 51.3ab %
